15 compounds from patent US12084472B2 (Ardelyx, Inc., priority 2015, dated 2024) can be followed below.

In this assay the target is T1, human TGR5 (Homo sapiens, UniProt Q8TDU6).
T1 construct: expressed in transfected cells; host or cells: HEK293
T1 sequence (Q8TDU6 1-330): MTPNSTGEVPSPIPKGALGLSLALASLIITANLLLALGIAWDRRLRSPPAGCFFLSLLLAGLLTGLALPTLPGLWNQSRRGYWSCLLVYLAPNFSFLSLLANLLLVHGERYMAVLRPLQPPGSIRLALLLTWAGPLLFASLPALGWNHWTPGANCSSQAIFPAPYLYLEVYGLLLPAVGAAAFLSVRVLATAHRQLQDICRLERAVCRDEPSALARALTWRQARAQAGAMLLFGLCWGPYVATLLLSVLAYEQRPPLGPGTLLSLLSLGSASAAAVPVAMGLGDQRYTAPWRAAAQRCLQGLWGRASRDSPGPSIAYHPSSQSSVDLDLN
The assay can be described thus: Cell-based TGR5 assay (cAMP generation, HTRF). The note with it: HEK293 cells stably transfected with human TGR5; cAMP by HTRF; 30 minutes at 37° C.; read-out: pEC50 Human TGR5 (converted). In short, it runs like this: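 Read-out was HTRF detection of cAMP, converted to concentration via a standard curve and fitted (3-parameter logistic) for pEC50 and maximal response. Agonist stimulation used HEK293 cells stably transfected with human TGR5, incubated 30 min at 37° C in IBMX-containing buffer at 0.05 nM to 10 μM compound.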
As for `Cc1cc(COC2(c3cnccc3-c3ccccc3OC3CC3)CC2)c(Cl)cc1CCCCN(CCO)C(=O)NC[C@H](O)[C@@H](O)[C@H](O)[C@H](O)CO` [Compound I-97, 1-(4-(5-chloro-4-((1-(4-(2-cyclopropoxyphenyl)pyridin-3-yl)cyclopropoxy)methyl)-2-methylphenyl)butyl)-1-(2-hydroxyethyl)-3-((2S,3R,4R,5R)-2,3,4,5,6-pentahydroxyhexyl)urea], the EC50 was 126 to 1000 nM.
For the compound `O=C(CN1CCN(C(=O)CCCCc2cc(Cl)c(COC3(c4cnccc4-c4ccccc4OC4CC4)CC3)cc2Cl)CC1)NC[C@H](O)[C@@H](O)[C@H](O)[C@H](O)CO` [Compound I-98, 2-(4-{5-[2,5-dichloro-4-({1-[4-(2-cyclopropoxyphenyl)pyridin-3-yl]cyclopropoxy}methyl)phenyl]pentanoyl}piperazin-1-yl)-N-[(2S,3R,4R,5R)-2,3,4,5,6-pentahydroxyhexyl]acetamide], the EC50 was below 100 nM.
To `O=C(CCCCc1cc(Cl)c(COC2(c3cnccc3-c3ccccc3OC3CC3)CC2)cc1Cl)NCCN1CCN(CC(=O)NC[C@H](O)[C@@H](O)[C@H](O)[C@H](O)CO)CC1` [Compound I-99, 5-[2,5-dichloro-4-({1-[4-(2-cyclopropoxyphenyl)pyridin-3-yl]cyclopropoxy}methyl)phenyl]-N-{2-[4-({[(2S,3R,4R,5R)-2,3,4,5,6-pentahydroxyhexyl]carbamoyl}methyl)piperazin-1-yl]ethyl}pentanamide] belongs below 100 nM.
As for `CN(C[C@H](O)[C@@H](O)[C@H](O)[C@H](O)CO)C(=O)CN1CCN(CCNC(=O)CCCCc2cc(Cl)c(COC3(c4cnccc4-c4ccccc4OC4CC4)CC3)cc2Cl)CC1` [Compound I-100, 5-[2,5-dichloro-4-({1-[4-(2-cyclopropoxyphenyl)pyridin-3-yl]cyclopropoxy}methyl)phenyl]-N-{2-[4-({methyl[(2S,3R,4R,5R)-2,3,4,5,6-pentahydroxyhexyl]carbamoyl}methyl)piperazin-1-yl]ethyl}pentanamide], the EC50 was below 100 nM.
Regarding `O=C(CCCCc1cc(Cl)c(COC2(c3cnccc3-c3ccccc3OC3CC3)CC2)cc1Cl)NCCCN1CCN(CCCNC(=O)CCCCc2cc(Cl)c(COC3(c4cnccc4-c4ccccc4OC4CC4)CC3)cc2Cl)CC1` [Compound I-101, 5-[2,5-dichloro-4-({1-[4-(2-cyclopropoxyphenyl)pyridin-3-yl]cyclopropoxy}methyl)phenyl]-N-{3-[4-(3-{5-[2,5-dichloro-4-({1-[4-(2-cyclopropoxyphenyl)pyridin-3-yl]cyclopropoxy}methyl)phenyl]pentanamido}propyl)piperazin-1-yl]propyl}pentanamide], the EC50 is 1260 to 10000 nM.
Turning to `O=C(O)CCC(CCC(=O)O)(CCC(=O)O)NC(=O)CCCCc1cc(Cl)c(COC2(c3cnccc3-c3ccccc3OC3CC3)CC2)cc1Cl` [Compound I-102, 4-(2-carboxyethyl)-4-{5-[2,5-dichloro-4-({1-[4-(2-cyclopropoxyphenyl)pyridin-3-yl]cyclopropoxy}methyl)phenyl]pentanamido}heptanedioic acid], the EC50 is 126 to 1000 nM.
Consider `O=C(CCCCc1cc(Cl)c(COC2(c3cnccc3-c3ccccc3OC3CC3)CC2)cc1Cl)N1CCN(C[C@H](O)[C@@H](O)[C@H](O[C@@H]2O[C@H](CO)[C@H](O)[C@H](O)[C@H]2O)[C@H](O)CO)CC1` [Compound I-103, 5-[2,5-dichloro-4-({1-[4-(2-cyclopropoxyphenyl)pyridin-3-yl]cyclopropoxy}methyl)phenyl]-1-{4-[(2S,3R,4R,5R)-2,3,5,6-tetrahydroxy-4-{[(2S,3R,4S,5R,6R)-3,4,5-trihydroxy-6-(hydroxymethyl)oxan-2-yl]oxy}hexyl]piperazin-1-yl}pentan-1-one], for which the EC50 was below 100 nM.
Regarding `O=C(CCCCc1cc(Cl)c(COC2(c3cnccc3-c3ccccc3OC3CC3)CC2)cc1Cl)NCC1O[C@H](CO)[C@@H](O)[C@H](O)[C@H]1O` (stereo partly drawn) [Compound I-104, 5-[2,5-dichloro-4-({1-[4-(2-cyclopropoxyphenyl)pyridin-3-yl]cyclopropoxy}methyl)phenyl]-N-{[(3R,4R,5S,6R)-3,4,5-trihydroxy-6-(hydroxymethyl)oxan-2-yl]methyl}pentanamide], the EC50 is below 100 nM.
For `O=C(CCCCc1cc(Cl)c(COC2(c3cnccc3-c3ccccc3OC3CC3)CC2)cc1Cl)N(CCO)C[C@H](O)[C@@H](O)[C@H](O)[C@H](O)CO` [Compound I-105, 5-[2,5-dichloro-4-({1-[4-(2-cyclopropoxyphenyl)pyridin-3-yl]cyclopropoxy}methyl)phenyl]-N-(2-hydroxyethyl)-N-[(2S,3R,4R,5R)-2,3,4,5,6-pentahydroxyhexyl]pentanamide] the value was below 100 nM.
Regarding `Cc1cc(COC2(c3cnccc3-c3ccccc3OC3CC3)CC2)c(Cl)cc1CCCCNC(=O)N[C@@H](C(=O)O)[C@@H](O)[C@H](O)[C@H](O)CO` [Compound I-106, (2R,3R,4S,5R)-2-[({4-[5-chloro-4-({1-[4-(2-cyclopropoxyphenyl)pyridin-3-yl]cyclopropoxy}methyl)-2-methylphenyl]butyl}carbamoyl)amino]-3,4,5,6-tetrahydroxyhexanoic acid], the EC50 is below 100 nM.
On to `Cc1cc(COC2(c3cnccc3-c3ccccc3OC3CC3)CC2)c(Cl)cc1CCCCNC(=O)N(CCO)C[C@H](O)[C@@H](O)[C@H](O)[C@H](O)CO` [Compound I-107, 1-{4-[5-chloro-4-({1-[4-(2-cyclopropoxyphenyl)pyridin-3-yl]cyclopropoxy}methyl)-2-methylphenyl]butyl}-3-(2-hydroxyethyl)-3-[(2S,3R,4R,5R)-2,3,4,5,6-pentahydroxyhexyl]urea], for which the EC50 is below 100 nM.
Regarding `CCN(C[C@H](O)[C@@H](O)[C@H](O)[C@H](O)CO)C(=O)CCCCc1cc(Cl)c(COC2(c3cnccc3-c3ccccc3OC3CC3)CC2)cc1Cl` [Compound I-108, 5-[2,5-dichloro-4-({1-[4-(2-cyclopropoxyphenyl)pyridin-3-yl]cyclopropoxy}methyl)phenyl]-N-ethyl-N-[(2S,3R,4R,5R)-2,3,4,5,6-pentahydroxyhexyl]pentanamide], the EC50 was below 100 nM.
Consider `Cc1cc(COC2(c3cnccc3-c3ccccc3OC3CC3)CC2)c(Cl)cc1CCCCNC(=O)NC[C@@H]1O[C@H](CO)[C@@H](O)[C@H](O)[C@H]1O` [Compound I-109, 3-{4-[5-chloro-4-({1-[4-(2-cyclopropoxyphenyl)pyridin-3-yl]cyclopropoxy}methyl)-2-methylphenyl]butyl}-1-{[(2S,3R,4R,5S,6R)-3,4,5-trihydroxy-6-(hydroxymethyl)oxan-2-yl]methyl}urea], for which the EC50 is below 100 nM.
Regarding `Cc1cc(COC2(c3cnccc3-c3ccccc3OC3CC3)CC2)c(Cl)cc1CCCCNC(=O)NC[C@@H]1O[C@H](C(=O)O)[C@@H](O)[C@H](O)[C@H]1O` [Compound I-110, (2S,3S,4R,5R,6S)-6-{[({4-[5-chloro-4-({1-[4-(2-cyclopropoxyphenyl)pyridin-3-yl]cyclopropoxy}methyl)-2-methylphenyl]butyl}carbamoyl)amino]methyl}-3,4,5-trihydroxyoxane-2-carboxylic acid], the EC50 is below 100 nM.
Turning to `Cc1cc(COC2(c3cnccc3-c3ccccc3OC3CC3)CC2)c(Cl)cc1CCCCNC(=O)NCC(=O)NCC(=O)NCC(=O)O` [Compound I-111, 2-(2-{2-[({4-[5-chloro-4-({1-[4-(2-cyclopropoxyphenyl)pyridin-3-yl]cyclopropoxy}methyl)-2-methylphenyl]butyl}carbamoyl)amino]acetamido}acetamido)acetic acid], the EC50 is below 100 nM.
